{"source": "ChEMBL document CHEMBL1799917", "about": "“Isolation, sequencing, and structure-activity relationships of cyclotides” (J Nat Prod, 2010)", "key": {"[1]": {"test_system": "Helicoverpa armigera", "assay": "Insecticidal activity against Helicoverpa armigera assessed as growth inhibition", "assay_type": "functional, organism-based"}, "[2]": {"assay": "Hemolytic activity in human type A RBC assessed as hemolysis after 1 hr by microtitre plate", "assay_type": "ADME, cell-based", "details": "Erythrocyte"}, "[3]": {"assay": "Hemolytic activity in human type A RBC assessed as concentration required to cause 75% hemolysis after 1 hr by microtitre plate", "assay_type": "ADME, cell-based", "details": "erythrocyte"}, "[4]": {"test_system": "Helicoverpa punctigera", "assay": "Insecticidal activity against Helicoverpa punctigera assessed as inhibition of development of larvae at 0.825 umol/g after 16 days", "assay_type": "functional, organism-based"}, "[5]": {"test_system": "Human immunodeficiency virus 1", "assay": "Antiviral activity against HIV1 infected in human CEM-SS cells assessed as protection against virus-induced cytopathic effect by XTT method", "assay_type": "functional, organism-based", "details": "Human immunodeficiency virus 1, CEM-SS"}, "[6]": {"test_system": "CEM-SS (Homo sapiens)", "assay": "Cytotoxicity against human CEM-SS cells"}}, "note": "Activity calls are given as the source filed them. The rule behind the calls is not given here. Where a SMILES comes first, the peptide text is derived from it. Bridges are numbered along the chain shown (N, C = ends)."}
{"smiles": "CC[C@H](C)[C@@H]1NC(=O)[C@@H]2CCCN2C(=O)[C@H](Cc2c[nH]c3ccccc23)NC(=O)[C@H]([C@@H](C)O)NC(=O)[C@@H]2CSSC[C@@H]3NC(=O)[C@](C)([C@@H](C)O)NC(=O)[C@H](CCC(=O)O)NC(=O)CNC(=O)[C@@H]4CSSC[C@H](NC(=O)CNC(=O)[C@@H]5CCCN5C(=O)[C@H]([C@@H](C)O)NC(=O)[C@H](CC(N)=O)NC(=O)[C@H](CSSC[C@H](NC1=O)C(=O)N[C@@H]([C@@H](C)O)C(=O)N[C@@H](CCCNC(=N)N)C(=O)N[C@@H](CC(=O)O)C(=O)NCC(=O)N[C@@H](CC(C)C)C(=O)N1CCC[C@H]1C(=O)N[C@@H](C(C)C)C(=O)N4)NC(=O)[C@H]([C@@H](C)O)NC(=O)CNC(=O)CNC(=O)[C@H](Cc1ccccc1)NC3=O)C(=O)N[C@@H](CO)C(=O)N2", "values": [{"measurement": "Activity", "setting": "[1]", "result": "Active"}]}
{"smiles": "CC[C@H](C)[C@@H]1NC(=O)[C@H](C)NC(=O)[C@H](C)NC(=O)[C@H](CO)NC(=O)[C@H]([C@@H](C)CC)NC(=O)[C@@H]2CSSC[C@@H]3NC(=O)[C@H](C(C)C)NC(=O)[C@H](CCCCN)NC(=O)[C@H](CO)NC(=O)[C@H](CCCCN)NC(=O)[C@@H]4CSSC[C@H](NC(=O)[C@H](CO)NC(=O)[C@H](CCC(=O)O)NC(=O)CNC(=O)[C@H](CSSC[C@H](NC(=O)CNC1=O)C(=O)N[C@@H](CO)C(=O)N4)NC(=O)[C@@H]1CCCN1C(=O)[C@H]([C@@H](C)CC)NC(=O)CNC(=O)[C@H](CC(N)=O)NC(=O)[C@H](CCCNC(=N)N)NC(=O)[C@H](Cc1ccc(O)cc1)NC3=O)C(=O)N[C@@H](C(C)C)C(=O)N[C@@H](Cc1c[nH]c3ccccc13)C(=O)N[C@@H]([C@@H](C)CC)C(=O)N1CCC[C@H]1C(=O)N2", "note": "[CYCLOVIOLACIN O13] (cyclo(AAIGCSCKSKVCYRNGIPCGESCVWIPCIS); disulfide 5-19, 7-23, 12-28)", "values": [{"measurement": "IC50", "setting": "[2]", "result": 11, "unit": "µM"}]}
{"smiles": "CC(C)C[C@@H]1NC(=O)CNC(=O)[C@H](CC(N)=O)NC(=O)[C@H](Cc2cnc[nH]2)NC(=O)[C@H]([C@@H](C)O)NC(=O)[C@@H]2CSSC[C@@H]3NC(=O)[C@H]([C@@H](C)O)NC(=O)CNC(=O)CNC(=O)[C@H](Cc4ccccc4)NC(=O)[C@@H]4CSSC[C@H](NC(=O)[C@H]([C@@H](C)O)NC(=O)[C@H](CSSC[C@H](NC(=O)[C@H]([C@@H](C)O)NC(=O)[C@@H]5CCCN5C1=O)C(=O)NCC(=O)N[C@@H](CCC(=O)O)C(=O)N[C@@H]([C@@H](C)O)C(=O)N4)NC(=O)CNC(=O)[C@@H]1CCCN1C(=O)[C@H]([C@@H](C)O)NC(=O)[C@H](CC(N)=O)NC3=O)C(=O)N[C@@H](CC(=O)O)C(=O)N1CCC[C@H]1C(=O)N[C@@H](Cc1c[nH]c3ccccc13)C(=O)N1CCC[C@H]1C(=O)N[C@@H](C(C)C)C(=O)N2", "note": "[CYCLOVIOLACIN O24] (cyclo(CDPWPVCTHNGLPTCGETCFGGTCNTPGCT); disulfide 1-19, 7-24, 15-29)", "values": [{"measurement": "Activity", "setting": "[3]", "result": 25, "unit": "µM"}]}
{"smiles": "CC(C)C[C@@H]1NC(=O)CNC(=O)[C@H](CC(N)=O)NC(=O)[C@H](CCCNC(=N)N)NC(=O)[C@H]([C@@H](C)O)NC(=O)[C@H](CS)NC(=O)[C@H](C(C)C)NC(=O)[C@@H]2CCCN2C(=O)[C@H](CCC(=O)O)NC(=O)[C@H](CO)NC(=O)[C@H](CS)NC(=O)[C@H]([C@@H](C)O)NC(=O)[C@H](CS)NC(=O)CNC(=O)[C@@H]2CCCN2C(=O)[C@H]([C@@H](C)O)NC(=O)[C@H](CC(N)=O)NC(=O)[C@H](CS)NC(=O)[C@H]([C@@H](C)O)NC(=O)CNC(=O)CNC(=O)[C@H](C(C)C)NC(=O)[C@H](CS)NC(=O)[C@H]([C@@H](C)O)NC(=O)[C@H](CCC(=O)O)NC(=O)CNC(=O)[C@H](CS)NC(=O)[C@H](C(C)C)NC(=O)[C@@H]2CCCN2C1=O", "note": "[KALATA B1]", "values": [{"measurement": "Activity", "setting": "[4]", "result": "Active"}]}
{"smiles": "CC(C)C[C@@H]1NC(=O)[C@H](CC(C)C)NC(=O)[C@@H]2CSSC[C@@H]3NC(=O)[C@H]([C@@H](C)O)NC(=O)[C@@H]4CSSC[C@H](NC(=O)[C@H](CC(N)=O)NC(=O)[C@H](CC(C)C)NC(=O)[C@H](C(C)C)NC(=O)[C@H](CO)NC(=O)CNC(=O)[C@H](CC(=O)O)NC(=O)[C@H](CCCCN)NC(=O)[C@H]([C@@H](C)O)NC(=O)[C@H](CSSC[C@H](NC(=O)[C@H]([C@@H](C)O)NC(=O)CNC1=O)C(=O)N[C@@H](Cc1ccc(O)cc1)C(=O)N[C@@H]([C@@H](C)O)C(=O)N[C@@H]([C@@H](C)O)C(=O)NCC(=O)N4)NC(=O)[C@H](C(C)C)NC(=O)[C@H](CCCNC(=N)N)NC(=O)[C@H](Cc1ccc(O)cc1)NC(=O)[C@H](CCCCN)NC(=O)[C@H](CC(N)=O)NC3=O)C(=O)NCC(=O)N[C@@H](CCC(=O)O)C(=O)N[C@@H]([C@@H](C)O)C(=O)N2", "note": "[KALATA B8] (cyclo(CGETCLLGTCYTTGCTCNKYRVCTKDGSVLN); disulfide 1-15, 5-17, 10-23)", "values": [{"measurement": "EC50", "setting": "[5]", "result": 2.5, "unit": "µM"}, {"measurement": "IC50", "setting": "[6]", "result": 3.5, "unit": "µM"}]}
